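Step 1: Grow cells in 96-well plates. Step 2: Expose to compound for 48 hours at 5 concentrations. Step 3: Interpolate endpoints linearly; if unreached, use highest concentration. Here, GI50 denotes the concentration required for 50% inhibition of growth.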 Calls of active or inactive are those of the source. Cut-off read from the data, not from the text of the source: active = GI50 up to about 1.1 µM and inactive = higher.
How the values were obtained:
Assay in all cases: NCI-60 cell line screen, 48 h
[1] = test system: SK-MEL-28
[2] = test system: SR
[3] = test system: 786-0
[4] = test system: NCI-H460
[5] = test system: UACC-257
[6] = test system: SNB-75
[7] = test system: COLO 205
[8] = test system: MOLT-4
[9] = test system: BT-549
[10] = test system: NCI-H522
[11] = test system: T47D
[12] = test system: KM12
[13] = test system: SK-MEL-5
[14] = test system: K562
[15] = test system: Malme-3M
[16] = test system: MDA-MB-435
[17] = test system: HL-60
[18] = test system: LOX IMVI
[19] = test system: HCC 2998
[20] = test system: RXF 393

Structure (SMILES)	GI50 [1]	GI50 [2]	GI50 [3]	GI50 [4]	GI50 [5]	GI50 [6]	GI50 [7]	GI50 [8]	GI50 [9]	GI50 [10]	GI50 [11]	GI50 [12]	GI50 [13]	GI50 [14]	GI50 [15]	GI50 [16]	GI50 [17]	GI50 [18]	GI50 [19]	GI50 [20]
CCOC(=O)CC1(O)CCCCC1(Sc1ccc(C)cc1)Sc1ccc(C)cc1 (stereo not given)	39.2 µM (inactive)	31.3 µM (inactive)	48.2 µM (inactive)	56.4 µM (inactive)	24.1 µM (inactive)	27.5 µM (inactive)	42.2 µM (inactive)	24.9 µM (inactive)	83 µM (inactive)	18.7 µM (inactive)	19.4 µM (inactive)	44.2 µM (inactive)	29.9 µM (inactive)	41.5 µM (inactive)	30.5 µM (inactive)	33.9 µM (inactive)	24.7 µM (inactive)	36.8 µM (inactive)	31.5 µM (inactive)	42.4 µM (inactive)
C=C1C(=O)OC2/C=C(\CO)C3OC3C3OC3(C)CC(OC(=O)/C(=C/C)COC(C)=O)C12 (stereo not given)	1.82 µM (inactive)	2.09 µM (inactive)	2.29 µM (inactive)	12.2 µM (inactive)	3.84 µM (inactive)	9.68 µM (inactive)	1.63 µM (inactive)	7.89 µM (inactive)	1.77 µM (inactive)	0.313 µM (active)	3.01 µM (inactive)	7.31 µM (inactive)	8.13 µM (inactive)	16 µM (inactive)	1.67 µM (inactive)	2.59 µM (inactive)	1.39 µM (inactive)	1.51 µM (inactive)	16.5 µM (inactive)	1.71 µM (inactive)
C=CCOC1=C(OCC=C)C(C2COC(C)(C)O2)OC1=O (stereo not given)	> 100 µM (inactive)	98.2 µM (inactive)	67 µM (inactive)	> 100 µM (inactive)	> 100 µM (inactive)	> 100 µM (inactive)	> 100 µM (inactive)	> 100 µM (inactive)	> 100 µM (inactive)	22.1 µM (inactive)	> 100 µM (inactive)	> 100 µM (inactive)	> 100 µM (inactive)	75.5 µM (inactive)	> 100 µM (inactive)	> 100 µM (inactive)	45 µM (inactive)	33.2 µM (inactive)	> 100 µM (inactive)	> 100 µM (inactive)
O=C1N/C(=N/N=C\C(O)C(O)C(O)C(O)CO)N/C1=C\c1ccc(Cl)cc1 (stereo not given)	8.55 µM (inactive)	4.04 µM (inactive)	5.9 µM (inactive)	15.7 µM (inactive)	14.5 µM (inactive)	2.3 µM (inactive)	8 µM (inactive)	3.9 µM (inactive)	5.52 µM (inactive)	2.75 µM (inactive)	3.25 µM (inactive)	22.1 µM (inactive)	17 µM (inactive)	10.6 µM (inactive)	2.76 µM (inactive)	7.14 µM (inactive)	25.3 µM (inactive)	5.5 µM (inactive)	12.4 µM (inactive)	7.19 µM (inactive)
CC(=O)C(O)N1C(=O)C=CC1=O (stereo not given)	10.4 µM (inactive)	1.99 µM (inactive)	2.33 µM (inactive)	3.58 µM (inactive)	6 µM (inactive)	6.24 µM (inactive)	1.56 µM (inactive)	2.05 µM (inactive)	8 µM (inactive)	1 µM (active)	> 25 µM (inactive)	18.9 µM (inactive)	17.8 µM (inactive)	> 25 µM (inactive)	2.19 µM (inactive)	17.7 µM (inactive)	1.74 µM (inactive)	4.43 µM (inactive)	21 µM (inactive)	2.13 µM (inactive)
S=c1sc2nc(Cl)nc(Cl)c2s1	16.1 µM (inactive)	1.04 µM (active)	6.21 µM (inactive)	14.2 µM (inactive)	15.3 µM (inactive)	17.3 µM (inactive)	7.18 µM (inactive)	0.822 µM (active)	8.87 µM (inactive)	6.84 µM (inactive)	7.06 µM (inactive)	7.85 µM (inactive)	8.73 µM (inactive)	4.24 µM (inactive)	8.83 µM (inactive)	7.94 µM (inactive)	0.442 µM (active)	9.14 µM (inactive)	15.3 µM (inactive)	12 µM (inactive)
C#CCSc1cnc2ccccc2c1Sc1c[nH]c2ccccc2c1=O	34.8 µM (inactive)	3.86 µM (inactive)	12.4 µM (inactive)	11.7 µM (inactive)	17.6 µM (inactive)	15.9 µM (inactive)	24 µM (inactive)	4.53 µM (inactive)	28.7 µM (inactive)	6.58 µM (inactive)	10.9 µM (inactive)	21.1 µM (inactive)	15.6 µM (inactive)	9.35 µM (inactive)	19.4 µM (inactive)	23.6 µM (inactive)	16.6 µM (inactive)	13.8 µM (inactive)	17.9 µM (inactive)	13.6 µM (inactive)

Reference: ChEMBL document CHEMBL1201862, “PubChem BioAssay data set” (2004)
